In patent publication US7563951B2, “Soybean seeds and plants exhibiting natural herbicide resistance” (Natural Genes, Inc., priority 2002, dated 2009):

Tested on: soybean seeds
Assay: Seed pre-soak in 2 percent aqueous glyphosate, then planting and observing germination
Assay type: in vivo, Glycine max L.
Conditions: six hour soak at room temperature, observed three weeks
Excerpt: The identification of soybean germplasm within which naturally-occurring herbicide resistance genes reside involved the screening of thirty-four soybean lines obtained from publicly-available seed stocks. The initial step in the screening was to pre-soak individual batches of seeds representing the thirty-four test lines in a 2 percent aqueous solution of glyphosate at room temperature. The individual batches of seeds were immersed in this 2 percent solution for a period of six hours. […] This screening step was essential to determine how seeds responded to the herbicide. Twelve of the varieties were present as approximately 2,500 seeds. There were approximately 5,000 seeds of the remaining 22 varieties. Each variety was immersed in separate containers to assure variety identification and isolation. The varieties that were tested are identified in Table 1.
After this initial pre-soak, each lot of seeds was labeled and was placed in a flat (36″×18″×9″) containing a soil/peat mixture growth medium, with the mixture being 50 percent top soil (sandy loam) and 50 percent peat moss, that was provided at a depth of 9 inches. […]
Germination and emergence of any seedlings was then observed for the next three weeks. […] Of these five lines, the ‘Dwight’ and ‘Jack’ varieties were chosen for further screening using large quantities of seeds.

Compound: O=C(O)CNCP(=O)(O)O [glyphosate, N-(phosphonomethyl)glycine]
- Germination of herbicide-treated soybean seeds: failed to germinate
